Results reported in paper PMC7900953, “Location of a single histidine within peptide carriers increases mRNA delivery” (The Journal of Gene Medicine, 2020).

System: MDA‐MB‐231 cells
Assay: mRNA transfection with HK lipopolyplexes (HK peptide + DOTAP liposomes)
Format: cell-based
Settings: HK 4 μg, mRNA 1 μg, DOTAP 1 μg; luciferase 24 h
Method: Transfection with HK lipopolyplexes was carried out in a manner similar to that described above, with a few exceptions. In brief, the HK peptide (4 μg) in Opti‐MEM was mixed initially with mRNA (1 μg) for 30 minutes. This was followed by adding the DOTAP cationic liposome (1,2‐dioleoyl‐3‐trimethyl ammonium‐propane; 1 μg; Roche, Basel, Switzerland) for an additional 30 minutes. The Opti‐MEM mixture (50 μl) was then added dropwise to the cells.
FIGURE 8 Comparison of mRNA transfection with DOTAP and several HK peptides. To form lipopolyplexes, the HK peptides (4 μg) in Opti‐MEM were initially mixed with mRNA (1 μg) for 30 minutes. DOTAP liposomes (1 μg) were then added, gently mixed and allowed to stand for an additional 30 min. Polyplexes were prepared as described previously. These complexes in Opti‐MEM (50 μl) were then added to the cells and, 24 hours later, the luciferase activity was measured. *p < 0.05; **p < 0.01; ***p < 0.001
Figure S4. Transfection of mRNA (1 µg) with HK peptides (4 µg) and/or DOTAP liposomes (1 µg). Cells were transfected with mRNA lipoplexes, polyplexes, or lipopolyplexes as described in the Material and Methods section, and twenty-four h later, the luciferase activity was measured. ***, P<0.001; ****, P<0.0001

Substance: R = KHHHKHHHKHHHHKHHHK [H3K(+H)4b, four‐branched analogue of H3K4b with one extra histidine in the second ‐HHHK‐ motif]
- mRNA carrier effectiveness compared with DOTAP liposomes: significantly better carriers of mRNA than the DOTAP liposomes
